These results are taken from the supplement of paper PMC11208160.
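Also: IS621 recombinase and bridge RNA in Escherichia coli cells.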

This data set in a line: recombinant barcode read abundance after kanamycin selection (control-corrected) (log10(CPM+1)); higher = more efficient recombination; sequences stand for … in AGTGCAGAGAAAATCGGCCAGTTTTCTCTGCCTGCAGTCCGCATGCCGT…AGATTTATGCAGCGGACTGCCTTTCTCCCAAAGTGATAAACCGGACAGTATCATGGACCGGTTTTCCCGGTAATCCGTATTTGCAAGGTTGGTTTCACT; site = the 11-nt target. The method, boiled down: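 Recombination efficiency comes from barcode counts at recombinant junctions, converted to counts per million, averaged and corrected against the control. Values appear as log10(CPM+1). They were obtained from a pooled E. coli screen in which each oligo paired a target with an IS621 bridge RNA target-binding loop, and cells were plated in duplicate on chloramphenicol/ampicillin LB agar or on chloramphenicol/ampicillin/kanamycin with 0.1 mM IPTG.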
In the case of “CTACCGTCTTGGGTTCTAACCTGTTGCGG (site CTACCATCTCG)”, the “recombinant barcode read abundance (log10)” value was determined as 0.285.

With “CTACCGTCTTGGGTTCTAACCTGTTGCGG (site CTACCGTCTCC)”, the “recombinant barcode read abundance (log10)” value was 1.97.

For the sequence “CTACCTCCTTGGGTTCTAACCTGTTGCGT (site CTACCTCCTAC)”, the “recombinant barcode read abundance (log10)” value came to 1.16.

Regarding “CTACCTCCTTGGGTTCTAACCTGTTGCGT (site CTACTTCCTAC)”, the “recombinant barcode read abundance (log10)” value came out at 0.37.

“CTACGAACTTGGGTTCTAACCTGTTGCTG (site CTACGAACTCA)”: the “recombinant barcode read abundance (log10)” value turned out to be 1.53.

Regarding “CTACGAACTTGGGTTCTAACCTGTTGCTG (site CTACGCACTCA)”, the “recombinant barcode read abundance (log10)” value is 0.167.

As to “CTACGAACTTGGGTTCTAACCTGTTGCTG (site CTACGGACTCA)”, the “recombinant barcode read abundance (log10)” value stood at 0.102.

For “CTACGAACTTGGGTTCTAACCTGTTGCTG (site CTACGTACTCA)”, the “recombinant barcode read abundance (log10)” value was 0.142.

For the sequence “CTACGTCCTTGGGTTCTAACCTGTTGCTG (site CTACGTCCTAA)”, the “recombinant barcode read abundance (log10)” value came to 0.0384.

Take “CTACGTCCTTGGGTTCTAACCTGTTGCTG (site CTACGTCCTCA)”: the “recombinant barcode read abundance (log10)” value was 1.64.

“CTACGTCCTTGGGTTCTAACCTGTTGCTG (site CTACGTCCTGA)”: the “recombinant barcode read abundance (log10)” value was 0.203.

Turning to “CTACGTCCTTGGGTTCTAACCTGTTGCTG (site CTACGTCCTTA)”, the “recombinant barcode read abundance (log10)” value came out at 0.0883.

As to “CTACGTCCTTGGGTTCTAACCTGTTGCTT (site CTACGTCCTAA)”, the “recombinant barcode read abundance (log10)” value was 1.04.

On to “CTACGTCCTTGGGTTCTAACCTGTTGCTT (site CTACGTCCTCA)”, for which the “recombinant barcode read abundance (log10)” value amounted to 0.14.

Take “CTACGTCCTTGGGTTCTAACCTGTTGCTT (site CTACGTCCTGA)”: the “recombinant barcode read abundance (log10)” value amounted to 0.297.

With “CTACGTCCTTGGGTTCTAACCTGTTGCTT (site CTACGTCCTTA)”, the “recombinant barcode read abundance (log10)” value is 0.0433.

As to “CTACGTTCTTGGGTTCTAACCTGTTGCCT (site CCACGTTCTAG)”, the “recombinant barcode read abundance (log10)” value turned out to be 0.761.

Turning to “CTACGTTCTTGGGTTCTAACCTGTTGCCT (site CTACGTTCTAG)”, the “recombinant barcode read abundance (log10)” value worked out at 1.05.

As to “CTACTAACTTGGGTTCTAACCTGTTGCAT (site CTACTAACTAA)”, the “recombinant barcode read abundance (log10)” value turned out to be 0.173.

Take “CTACTAACTTGGGTTCTAACCTGTTGCAT (site CTACTAACTAC)”: the “recombinant barcode read abundance (log10)” value stood at 0.149.

For the sequence “CTACTAACTTGGGTTCTAACCTGTTGCAT (site CTACTAACTAG)”, the “recombinant barcode read abundance (log10)” value was found to be 0.268.

For the sequence “CTACTAACTTGGGTTCTAACCTGTTGCAT (site CTACTAACTAT)”, the “recombinant barcode read abundance (log10)” value is 1.34.

With “CTACTAACTTGGGTTCTAACCTGTTGCTT (site CTACTAACTAA)”, the “recombinant barcode read abundance (log10)” value was found to be 0.316.

Turning to “CTACTAACTTGGGTTCTAACCTGTTGCTT (site CTACTAACTAC)”, the “recombinant barcode read abundance (log10)” value turned out to be 0.0509.

Consider “CTACTAACTTGGGTTCTAACCTGTTGCTT (site CTACTAACTAG)”, for which the “recombinant barcode read abundance (log10)” value was 0.0714.

Take “CTACTAACTTGGGTTCTAACCTGTTGCTT (site CTACTAACTAT)”: the “recombinant barcode read abundance (log10)” value worked out at 0.0517.

On to “CTACTAGCTTGGGTTCTAACCTGTTGCAA (site CTACTAGCTAT)”, for which the “recombinant barcode read abundance (log10)” value stood at 0.196.

As to “CTACTAGCTTGGGTTCTAACCTGTTGCAA (site CTACTAGCTCT)”, the “recombinant barcode read abundance (log10)” value stood at 0.617.

Consider “CTACTAGCTTGGGTTCTAACCTGTTGCAA (site CTACTAGCTGT)”, for which the “recombinant barcode read abundance (log10)” value stood at 0.0288.

Regarding “CTACTAGCTTGGGTTCTAACCTGTTGCAA (site CTACTAGCTTT)”, the “recombinant barcode read abundance (log10)” value was 1.25.

Take “CTAGACACTTGGGTTCTAACCTGTTGCGG (site CTAGACACTCC)”: the “recombinant barcode read abundance (log10)” value is 2.14.

On to “CTAGACACTTGGGTTCTAACCTGTTGCGG (site CTGGTCACTCC)”, for which the “recombinant barcode read abundance (log10)” value amounted to 0.0881.

Regarding “CTAGACCCTTGGGTTCTAACCTGTTGCCT (site ATAGACCCTAG)”, the “recombinant barcode read abundance (log10)” value is 0.347.

As for “CTAGACCCTTGGGTTCTAACCTGTTGCCT (site CTAGACCCTAG)”, the “recombinant barcode read abundance (log10)” value is 1.95.

For the sequence “CTAGACCCTTGGGTTCTAACCTGTTGCCT (site GTAGACCCTAG)”, the “recombinant barcode read abundance (log10)” value came out at 0.223.

For the sequence “CTAGACCCTTGGGTTCTAACCTGTTGCCT (site TTAGACCCTAG)”, the “recombinant barcode read abundance (log10)” value stood at 0.0677.

Consider “CTAGACTCTTGGGTTCTAACCTGTTGCTG (site CTAGACTCTAA)”, for which the “recombinant barcode read abundance (log10)” value amounted to 0.136.

Turning to “CTAGACTCTTGGGTTCTAACCTGTTGCTG (site CTAGACTCTCA)”, the “recombinant barcode read abundance (log10)” value worked out at 2.73.

As to “CTAGACTCTTGGGTTCTAACCTGTTGCTG (site CTAGACTCTGA)”, the “recombinant barcode read abundance (log10)” value was found to be 0.076.

Regarding “CTAGACTCTTGGGTTCTAACCTGTTGCTG (site CTAGACTCTTA)”, the “recombinant barcode read abundance (log10)” value amounted to 0.188.

Turning to “CTAGCCTCTTGGGTTCTAACCTGTTGCAT (site CTAACCTCTAT)”, the “recombinant barcode read abundance (log10)” value was 0.739.

Consider “CTAGCCTCTTGGGTTCTAACCTGTTGCAT (site CTACCCTCTAT)”, for which the “recombinant barcode read abundance (log10)” value was found to be 0.582.

Regarding “CTAGCCTCTTGGGTTCTAACCTGTTGCAT (site CTAGCCTCTAT)”, the “recombinant barcode read abundance (log10)” value stood at 2.38.

Turning to “CTAGCCTCTTGGGTTCTAACCTGTTGCAT (site CTATCCTCTAT)”, the “recombinant barcode read abundance (log10)” value was found to be 0.0542.

With “CTAGCGACTTGGGTTCTAACCTGTTGCTG (site CTAGCCACTTA)”, the “recombinant barcode read abundance (log10)” value was 0.

Turning to “CTAGCGACTTGGGTTCTAACCTGTTGCTG (site CTAGCGACTCA)”, the “recombinant barcode read abundance (log10)” value came out at 0.287.

Consider “CTAGGAGCTTGGGTTCTAACCTGTTGCGT (site CTAGAAGCTAC)”, for which the “recombinant barcode read abundance (log10)” value was determined as 1.84.

With “CTAGGAGCTTGGGTTCTAACCTGTTGCGT (site CTAGGAGCTAC)”, the “recombinant barcode read abundance (log10)” value stood at 2.12.

Regarding “CTAGGATCTTGGGTTCTAACCTGTTGCGT (site CTAGGATCTAC)”, the “recombinant barcode read abundance (log10)” value stood at 2.77.

With “CTAGGATCTTGGGTTCTAACCTGTTGCGT (site CTAGTCTCTAC)”, the “recombinant barcode read abundance (log10)” value was 0.152.

Consider “CTAGGCCCTTGGGTTCTAACCTGTTGCAT (site CTAGGCCCTAA)”, for which the “recombinant barcode read abundance (log10)” value was 0.379.

For “CTAGGCCCTTGGGTTCTAACCTGTTGCAT (site CTAGGCCCTAC)”, the “recombinant barcode read abundance (log10)” value turned out to be 1.97.

On to “CTAGGCCCTTGGGTTCTAACCTGTTGCAT (site CTAGGCCCTAG)”, for which the “recombinant barcode read abundance (log10)” value was 0.318.

As to “CTAGGCCCTTGGGTTCTAACCTGTTGCAT (site CTAGGCCCTAT)”, the “recombinant barcode read abundance (log10)” value stood at 2.77.

For “CTAGTAGCTTGGGTTCTAACCTGTTGCTC (site CTAGTAGCTGA)”, the “recombinant barcode read abundance (log10)” value amounted to 1.74.

On to “CTAGTAGCTTGGGTTCTAACCTGTTGCTC (site GTAGCAGCTGA)”, for which the “recombinant barcode read abundance (log10)” value came out at 0.331.

On to “CTAGTCACTTGGGTTCTAACCTGTTGCAC (site CTAGTCACTGT)”, for which the “recombinant barcode read abundance (log10)” value stood at 2.81.

Take “CTAGTCACTTGGGTTCTAACCTGTTGCAC (site CTAGTGTCTGT)”: the “recombinant barcode read abundance (log10)” value is 0.0438.

“CTAGTTGCTTGGGTTCTAACCTGTTGCAA (site CTAATTGCTTT)”: the “recombinant barcode read abundance (log10)” value came to 0.0799.

On to “CTAGTTGCTTGGGTTCTAACCTGTTGCAA (site CTACTTGCTTT)”, for which the “recombinant barcode read abundance (log10)” value is 0.229.

“CTAGTTGCTTGGGTTCTAACCTGTTGCAA (site CTAGTTGCTTT)”: the “recombinant barcode read abundance (log10)” value was 0.328.

Turning to “CTAGTTGCTTGGGTTCTAACCTGTTGCAA (site CTATTTGCTTT)”, the “recombinant barcode read abundance (log10)” value turned out to be 0.0786.

Regarding “CTATAGACTTGGGTTCTAACCTGTTGCCA (site CTATAGACTTG)”, the “recombinant barcode read abundance (log10)” value came out at 0.079.

With “CTATAGACTTGGGTTCTAACCTGTTGCCA (site CTCTAGACTAG)”, the “recombinant barcode read abundance (log10)” value worked out at 0.206.

On to “CTATCGACTTGGGTTCTAACCTGTTGCCT (site CTATAGACTAG)”, for which the “recombinant barcode read abundance (log10)” value worked out at 0.0416.

Take “CTATCGACTTGGGTTCTAACCTGTTGCCT (site CTATCGACTAG)”: the “recombinant barcode read abundance (log10)” value was 0.766.

Regarding “CTATCGACTTGGGTTCTAACCTGTTGCCT (site CTATGGACTAG)”, the “recombinant barcode read abundance (log10)” value is 0.163.

Turning to “CTATCGACTTGGGTTCTAACCTGTTGCCT (site CTATTGACTAG)”, the “recombinant barcode read abundance (log10)” value was found to be 0.0575.

For the sequence “CTATCGTCTTGGGTTCTAACCTGTTGCCT (site ATATCGTCTAG)”, the “recombinant barcode read abundance (log10)” value came to 0.0956.

As to “CTATCGTCTTGGGTTCTAACCTGTTGCCT (site CTATCGTCTAG)”, the “recombinant barcode read abundance (log10)” value stood at 1.22.

For the sequence “CTATGCCCTTGGGTTCTAACCTGTTGCTA (site CTATGCCCTTA)”, the “recombinant barcode read abundance (log10)” value worked out at 1.16.

“CTATGCCCTTGGGTTCTAACCTGTTGCTA (site CTATGCCCTTC)”: the “recombinant barcode read abundance (log10)” value was determined as 0.179.

As for “CTATGGACTTGGGTTCTAACCTGTTGCAC (site CTATGGACTAT)”, the “recombinant barcode read abundance (log10)” value turned out to be 0.132.

“CTATGGACTTGGGTTCTAACCTGTTGCAC (site CTATGGACTCT)”: the “recombinant barcode read abundance (log10)” value was 0.242.

Take “CTATGGACTTGGGTTCTAACCTGTTGCAC (site CTATGGACTGT)”: the “recombinant barcode read abundance (log10)” value came to 1.3.

As to “CTATGGACTTGGGTTCTAACCTGTTGCAC (site CTATGGACTTT)”, the “recombinant barcode read abundance (log10)” value came to 0.0443.

Take “CTATGGACTTGGGTTCTAACCTGTTGCCT (site CTATAGACTAG)”: the “recombinant barcode read abundance (log10)” value is 0.398.
